Assay results published in US20060009506A1, “Drugs for the treatment of neoplastic disorders” (Odyssey Thera, Inc., priority 2004, published 2006).

What was measured:
cancer cells = assay: Antiproliferative activity against cancer cells (cell line not stated); type: cell-based, human; settings: general statement
Excerpt: (§1) We first screened compounds derived from the known pharmacopeia and from a selected natural product collection using two types of assays: (a) measurements of post-translational modifications of proteins; (b) measurements of protein-protein interactions. For the purpose of measuring post-translational modifications of proteins, we used immunofluorescence methods combined with phospho-specific antibodies. For the purpose of quantifying and localizing protein complexes we used fluorescence methods based on protein-fragment complementation assays (PCA). ‘Hits’ from the initial screens were then tested for antiproliferative activity in up to 5 different human tumor cell lines. […] For drugs with antiproliferative activity in PC-3 cells, dose-response curves were generated to determine the EC50 for antiproliferative activity and additional tumor cell lines were tested to determine the breadth of activity. Methods for assay development, validation, screening, and testing of antiproliferative activity are described below.
Cells were maintained in various media as follows: A549, LoVo and PC-3 (Ham's F12K medium with 2 mM L-glutamine and 1.5 g/L sodium bicarbonate), MIA PaCa-2 (Dulbecco's modified Eagle's medium with 4 mM L-glutamine and 4.5 g/L glucose), U87-MG (MEM+Earle's BSS). Medium for each cell line was supplemented with 10% FBS and […] Penecillin/Streptomycin. All cells were grown in incubators set at 37° C., 5% CO2. Thiazolyl Blue Tetrazolium Bromide (MTT) based proliferation assays were performed to assess the anti-proliferative activities of the compounds on these cells. Cells were seeded in 96 well plates at a density of 750 cells/well 24 hours prior to compound treatment. The cells were incubated with varying concentrations of compounds for 120 hours. Compound concentrations range from 0.03 to 100 microM (half log increments) except for alpha-Tomatine (0.001-100 microM, half log increments), Neriifolin (0.0002-100 microM) and Peruvoside (0.01-100 microM). Drug treatment was performed in 5 replicate wells. Background absorbance was established by wells containing medium but no cells. Vehicle (DMSO) only was used as control. MTT (Sigma-Aldrich, St. Louis, Mo.) was added to each well at a final concentration of 0.5 mg/ml. Following a 2 hour incubation at 37° C., medium in the wells was replaced with 0.15 ml DMSO. The plates were agitated for 15 min using a microtiter plate shaker. […] Mean absorbance values were calculated from 5 replicate wells of each drug treatment following subtraction of background absorbance from blank samples and plotted as a percentage of control.

A549 cells = assay: MTT proliferation assay, non-small cell lung carcinoma A549; type: cell-based, Human; settings: Tumor Cell: NSCLC (A549), concentrations tested in microM
Excerpt: as §1
(§2) Cells were maintained in various media as follows: A549, LoVo and PC-3 (Ham's F12K medium with 2 mM L-glutamine and 1.5 g/L sodium bicarbonate), MIA PaCa-2 (Dulbecco's modified Eagle's medium with 4 mM L-glutamine and 4.5 g/L glucose), U87-MG (MEM+Earle's BSS). Medium for each cell line was supplemented with 10% FBS and […] Penecillin/Streptomycin. All cells were grown in incubators set at 37° C., 5% CO2. Thiazolyl Blue Tetrazolium Bromide (MTT) based proliferation assays were performed to assess the anti-proliferative activities of the compounds on these cells. Cells were seeded in 96 well plates at a density of 750 cells/well 24 hours prior to compound treatment. The cells were incubated with varying concentrations of compounds for 120 hours. […] Drug treatment was performed in 5 replicate wells. Background absorbance was established by wells containing medium but no cells. Vehicle (DMSO) only was used as control. MTT (Sigma-Aldrich, St. Louis, Mo.) was added to each well at a final concentration of 0.5 mg/ml. Following a 2 hour incubation at 37° C., medium in the wells was replaced with 0.15 ml DMSO. The plates were agitated for 15 min using a microtiter plate shaker.

cancer pathways = assay: Screening of cancer pathways in human cells (PCA and phospho-immunofluorescence); type: cell-based; settings: cancer pathway in which the drug was active; screened at 10 micromolar, HEK293 cells
Excerpt: as §1
Immunofluorescence was performed on drug-treated cells using antibodies that specifically recognize phosphorylated forms of key signaling proteins. HEK293T cells were seeded in black-walled, poly-lysine coated 96-well plates (Greiner) at a density of 30,000/well. After 24 hours, cells in duplicate wells were treated with drugs. 100 ng/ml hEGF added to the cells during the last 5 min of drug treatment. The cells were rinsed once with PBS and fixed with 4% formaldehyde for 10 min. The cells were subsequently permeabilized with 0.25% Triton X-100 in PBS and incubated with 3% BSA for 30 min to block non-specific antibody binding. Each of the 4 sets of identically treated cells were then incubated with rabbit antibodies against phosphorylated CREB (Ser133), hsp27 (Ser82), pERK (T202/Y204) (Cell Signaling), or BSA in PBS. The cells were rinsed with PBS and incubated with Alexa488 conjugated goat anti-rabbit secondary antibody (Molecular Probes). Cell nuclei were stained with Hoechst33342 (Molecular Probes). Images were acquired using Discovery-1 High Content Imaging System (Molecular Devices). Background fluorescence due to nonspecific binding by the secondary antibody was established with the use of cells that were incubated with BSA/PBS and without primary antibodies. Fluorescence intensities were quantitated using Image J-based image analysis algorithm as described below.
Reporter fragments for PCA were generated by oligonucleotide synthesis (Blue Heron Biotechnology, Bothell, Wash.). First, oligonucleotides coding for polypeptide fragments YFP[1]and YFP[2] […] Next, PCR mutagenesis was used to generate the mutant fragments IFP[1] and IFP[2]. The IFP[1] fragment corresponds to YFP[1]-(F46L, F64L, M153T) and the IFP[2] fragment corresponds to YFP[2]-(V163A, S175G). […] The YFP[1], YFP[2], IFP[1] and IFP[2] fragments were amplified by PCR to incorporate restriction sites and a linker sequence, described below, in configurations that would allow fusion of a gene of interest to either the 5′- or 3′-end of each reporter fragment. The reporter-linker fragment cassettes were subcloned into a mammalian expression vector (pcDNA3.1Z, Invitrogen) that had been modified to incorporate the replication origin (oriP) of the Epstein Barr virus (EBV). […] Additionally, these vectors still retain the SV40 origin, allowing for episomal expression in cell lines expressing the SV40 large T antigen (e.g. HEK293T, Jurkat or COS). […] PCA fusion constructs were prepared for a large number of proteins known to participate in cellular pathways (Table 1 and Table 2). The full coding sequence for each gene of interest was amplified by PCR from a sequence-verified full-length cDNA.

MIA PaCa-2 cells = assay: MTT proliferation assay, pancreatic carcinoma MIA PaCa-2; type: cell-based; settings: Homo sapiens, Tumor Cell: Pancreatic (MIA PaCa-2), concentrations tested in microM
Excerpt: as §1, §2

Row | IC50 (A549 cells; Homo sapiens, A549, 120 h) [µM] | IC50 (MIA PaCa-2 cells; MIA PaCa-2, 120 h) [µM] | IC50 (A549 cells; 120 hours) [µM] | Structure (SMILES) | Antiproliferative activity against cancer cells (cancer cells) | IC50 (A549 cells; Homo sapiens, 120 hours) [µM] | Pathway Activity (cancer pathways) | IC50 (MIA PaCa-2 cells; 120 hours) [µM]
1 |  |  |  | Cc1c(N(C)C)c(=O)n(-c2ccccc2)n1C [4-dimethylaminoantipyrine] | substantial antiproliferative activity |  |  | 
2 |  |  |  | CCCSc1ccc2nc(NC(=O)OC)[nH]c2c1 [Albendazole] | substantial antiproliferative activity | 0.28 | invasion/metastasis | 0.14
3 | 4.74 | 1.58 |  | CC(C)COCC(CN(Cc1ccccc1)c1ccccc1)N1CCCC1 (centres unmarked) [Bepridil] | substantial antiproliferative activity |  | invasion/metastasis | 
4 | 56.4 | 58.3 |  | COc1c2ccoc2cc2oc(=O)ccc12 [Bergaptene] | substantial antiproliferative activity |  | proliferation; invasion/ | 
5 |  |  |  | CCN(CC)CCOc1ccc(C(=C(Cl)c2ccccc2)c2ccccc2)cc1 [Clomiphene] | substantial antiproliferative activity |  | proliferation | 
6 | 11.9 | 1.93 |  | CNCCCN1c2ccccc2CCc2ccccc21 [Desipramine] | substantial antiproliferative activity |  | proliferation | 
7 | 29.4 | 13.9 |  | O=C(CCCN1CC=C(n2c(=O)[nH]c3ccccc32)CC1)c1ccc(F)cc1 [Droperidol] | substantial antiproliferative activity |  | invasion/metastasis | 
8 |  |  |  | Fc1ccc(C(c2ccc(F)cc2)N2CCN(C/C=C/c3ccccc3)CC2)cc1 [Flunarizine] | substantial antiproliferative activity |  | invasion/metastasis | 
9 | 0.18 |  | 0.28 | COC(=O)Nc1nc2ccc(C(=O)c3ccccc3)cc2[nH]1 [Mebendazole] | substantial antiproliferative activity |  | invasion/metastasis | 
10 |  |  |  | CCN(CCCCOC(=O)c1ccc(OC)c(OC)c1)C(C)Cc1ccc(OC)cc1 (centres unmarked) [Mebeverine] | substantial antiproliferative activity |  | invasion/metastasis | 
11 | 18.8 | 68.2 |  | C=C1c2c(Cl)ccc(O)c2C(=O)C2=C(O)[C@]3(O)C(=O)C(C(N)=O)=C(O)[C@@H](N(C)C)[C@@H]3[C@@H](O)[C@H]12 [Meclocycline] |  |  |  | 
12 | 5.7 | 20.7 |  | CN1C[C@H](CNC(=O)OCc2ccccc2)C[C@@H]2c3cccc4c3c(cn4C)C[C@H]21 [Melergoline] | substantial antiproliferative activity |  | invasion/metastasis | 
13 |  |  |  | CO[C@H]1[C@H](O)[C@H](O[C@H]2CC[C@@]3(C)[C@H](CC[C@@H]4[C@@H]3CC[C@]3(C)[C@@H](C5=CC(=O)OC5)CC[C@]43O)C2)O[C@@H](C)[C@@H]1O [Neriifolin] | substantial antiproliferative activity | 0.006 | invasion/metastasis | 0.003
14 | 21.9 | 20.4 |  | COC(=O)C1=C(C)NC(C)=C(C(=O)OCCN(C)Cc2ccccc2)C1c1cccc([N+](=O)[O-])c1 (centres unmarked) [Nicardipine] |  |  |  | 
15 |  |  |  | CO[C@H]1[C@H](O)[C@H](O[C@H]2CC[C@@]3(C=O)[C@H](CC[C@@H]4[C@@H]3CC[C@]3(C)[C@@H](C5=CC(=O)OC5)CC[C@]43O)C2)O[C@@H](C)[C@@H]1O [Peruvoside] | substantial antiproliferative activity | < 0.03 | cell cycle | < 0.03
16 | 11.9 | 1.97 |  | CN(C)CCCN1c2ccccc2Sc2ccccc21 [Promazine] | substantial antiproliferative activity |  | proliferation | 
17 | 53.8 | 22.2 |  | CC(CN1c2ccccc2Sc2ccccc21)N(C)C (centres unmarked) [Promethazine] | substantial antiproliferative activity |  | proliferation | 
18 |  |  |  | Cc1c(NC(C)C)c(=O)n(-c2ccccc2)n1C [Ramifenazone] | substantial antiproliferative activity |  | invasion/metastasis | 
19 |  |  |  | C[n+]1cc2c3c(ccc2c2ccc4cc5c(cc4c21)OCO5)OCO3 [Sanguinarine] |  | 2.23 |  | 1.93
20 |  |  |  | CN[C@H]1CC[C@@H](c2ccc(Cl)c(Cl)c2)c2ccccc21 [Sertraline] | substantial antiproliferative activity |  | apoptosis | 
21 | 0.78 | 0.18 |  | CCCCCCCCNC(C)C(O)c1ccc(SC(C)C)cc1 (centres unmarked) [Suloctidil] | substantial antiproliferative activity |  | invasion/metastasis | 
22 |  |  |  | Cc1c(N(C)CS(=O)(=O)[O-])c(=O)n(-c2ccccc2)n1C.[Na+] [dipyrone] | substantial antiproliferative activity |  |  | 
23 |  |  |  | COC(=O)[C@H]1[C@H]2C[C@@H]3c4[nH]c5cc(OC)ccc5c4CCN3C[C@H]2C[C@@H](OC(=O)c2cc(OC)c(OC)c(OC)c2)[C@@H]1OC [reserpine, Reserpine] | substantial antiproliferative activity |  |  | 

Row | Structure (SMILES) | IC50 (A549 cells; Homo sapiens, A549, 120 h) [µM] | IC50 (MIA PaCa-2 cells; MIA PaCa-2, 120 h) [µM] | IC50 (A549 cells; 120 hours) [µM] | Antiproliferative activity against cancer cells (cancer cells) | IC50 (A549 cells; Homo sapiens, 120 hours) [µM] | Pathway Activity (cancer pathways) | IC50 (MIA PaCa-2 cells; 120 hours) [µM]
24 | Oc1ccc(Cl)cc1Cc1cc(Cl)ccc1O [Dichlorophene] | 9.83 | 25.8 |  | substantial antiproliferative activity |  | proliferation | 
